Patent US20250367173A1, “ECTONUCLEOTIDE PYROPHOSPHATASE-PHOSPHODIESTERASE-1 INHIBITORS AND PHARMACEUTICAL COMPOSITIONS COMPRISING THE SAME” (LigaChem Biosciences Inc., priority 2022, published 2025)

What was measured:
[1] = target: T1, ENPP-1 (Homo sapiens, UniProt P22413); assay: ENPP-1 enzyme assay with cGAMP substrate; assay type: biochemical; settings: 200 pM ENPP-1, 10 μM substrate 2′3′-cGAMP, pH 7.4, 37° C., 30 minutes, Transcreener AMP2/GMP2 kit; average IC50
T1 construct: purchased Biovendor RD172124100
T1 sequence (P22413 1-925): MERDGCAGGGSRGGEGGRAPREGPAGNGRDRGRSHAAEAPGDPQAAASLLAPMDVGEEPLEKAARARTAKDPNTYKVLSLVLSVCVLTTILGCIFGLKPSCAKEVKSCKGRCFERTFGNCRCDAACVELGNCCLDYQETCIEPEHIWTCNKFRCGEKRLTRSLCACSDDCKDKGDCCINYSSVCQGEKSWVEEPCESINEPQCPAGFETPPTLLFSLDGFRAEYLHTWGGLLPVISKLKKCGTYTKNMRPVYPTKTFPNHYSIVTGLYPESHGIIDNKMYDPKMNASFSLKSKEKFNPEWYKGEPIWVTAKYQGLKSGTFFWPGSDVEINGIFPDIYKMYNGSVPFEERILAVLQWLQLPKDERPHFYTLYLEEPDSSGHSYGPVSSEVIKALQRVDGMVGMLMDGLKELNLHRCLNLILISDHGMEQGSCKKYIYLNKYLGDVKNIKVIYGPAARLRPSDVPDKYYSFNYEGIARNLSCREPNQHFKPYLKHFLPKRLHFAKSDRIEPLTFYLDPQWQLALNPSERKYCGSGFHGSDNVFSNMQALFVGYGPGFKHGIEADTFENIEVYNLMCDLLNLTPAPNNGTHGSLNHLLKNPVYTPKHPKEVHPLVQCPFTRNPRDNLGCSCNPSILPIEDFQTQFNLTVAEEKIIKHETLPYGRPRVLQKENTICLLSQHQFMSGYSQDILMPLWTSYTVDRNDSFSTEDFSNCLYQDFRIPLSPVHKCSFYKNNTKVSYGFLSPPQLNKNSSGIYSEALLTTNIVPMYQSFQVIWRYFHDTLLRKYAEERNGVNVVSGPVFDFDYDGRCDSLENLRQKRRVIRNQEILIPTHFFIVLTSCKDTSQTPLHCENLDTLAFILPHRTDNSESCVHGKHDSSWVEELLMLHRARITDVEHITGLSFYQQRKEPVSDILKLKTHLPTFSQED
Procedure: 2′3′-cGAMP is a natural substrate specifically hydrolyzed by ENPP-1, and produces 5′-adenosine monophosphate (AMP) and 5′-guanosine monophosphate (GMP). AMP and GMP produced from the reaction are monitored for ENPP-1 enzyme activity through an AMP^2/GMP^2 ENPP-1 Assay kit (Bellbrook Labs, catalog number 3015).
First, the reaction mixture contains 25 mM Tris-HCl (pH 7.4), 5 mM MgCl2, 0.01% Brij-35, and 1% DMSO. Serially diluted ENPP-1 inhibitors (test compound concentrations ranging from 10 μM to 0.5 nM) are reacted with 200 pM ENPP-1 (Biovendor, catalog number RD172124100) and 10 μM substrate 2′3′-cGAMP at 37° C. for 30 minutes. All assays include a DMSO control without ENPP-1 inhibitor that provides maximal AMP and GMP production. After 30 minutes of this reaction, AMP and GMP production is detected as a measure of ENPP-1 enzymatic activity using the Transcreener® AMP^2/GMP^2 ENPP-1 Assay kit. The detection reagent is a reagent containing 16 nM AMP^2/GMP^2 Antibody-Tb, 25 mM Tris-HCl and 60.1 nM AMP/GMP HiLyte647 Tracer, which is added by 5 μl, mixed well, and incubated at 25° C. for 2 hours.
(§1) The […] signal is measured using a SPARK Cyto plate reader (Tecan). Inhibition (%) is calculated using the following formula: (Max 615:665 ratio-615:665 ratio)/Max 615:665 ratio×100%. % residual ENPP-1 enzyme activity versus IC50 values for ENPP-1 inhibitor concentrations were determined by fitting inhibition curves using the 4-parameter method of GraphPad Prism® software [GraphPad version 9.3.1 for Windows, GraphPad Software, La Jolla California USA, www.graphpad.com].

[2] = target: T1, ENPP-1; assay: ENPP-1 enzyme assay with pNP-TMP substrate; assay type: biochemical; settings: 12.5 ng ENPP-1, 720 μM substrate pNP-TMP, pH 9.0, 37° C., 60 minutes, absorbance 405 nm; average IC50
Procedure: In order to measure the ENPP-1 inhibitory activity of the compounds according to the present disclosure, the following tests were performed.
ENPP-1 hydrolyzes a variety of substrates, including phosphodiester bonds of nucleotides and nucleotide sugars and pyrophosphate bonds of nucleotides and nucleotide sugars. p-Nitrophenyl 5′-thymidine monophosphate (p-Nph-5′-TMP) is an artificial substrate for 5′-adenosine monophosphate (AMP), which is hydrolyzed by the human recombinant ENPP-1 enzyme. In the above reaction, ENPP-1 enzymatic activity is monitored through the formation of yellow p-nitrophenolate, which absorbs at 405 nm.
First, the reaction mixture contains 100 mM Tris-HCl (pH 9.0), 150 mM NaCl, […], and 1% DMSO. Serially diluted ENPP-1 inhibitors (test compound concentrations ranging from 10 μM to 0.5 nM) are reacted with 12.5 ng of ENPP-1 (Biovendor, catalog number RD172124100) and 720 μM substrate pNP-TMP at 37° C. for 60 minutes. All assays include a DMSO control without ENPP-1 inhibitor that gives maximum absorbance.
as §1, with “After 60 minutes of this reaction, the” for “The”, “an Epoch™ Microplate Spectrophotometer (BioTek Instruments Inc.).” for “a SPARK Cyto plate reader (Tecan).”, “Sample OD405 nm/Max OD405 nm×100%.” for “(Max 615:665 ratio-615:665 ratio)/Max 615:665 ratio×100%.”

Row | SMILES | IC50 [1] | IC50 [2]
1 | COc1ccc2c(c1)c1ncccc1n2Cc1ccc(P(=O)(O)O)cc1 [Compound 13, (4-((8-methoxy-5H-pyrido[3,2-b]indol-5-yl)methyl)phenyl)phosphonic acid] | < 1000 nM | < 1000 nM
2 | COc1cc2c3ncccc3n(Cc3ccc(S(N)(=O)=O)cc3)c2cc1OC [Compound 28, 4-((7,8-dimethoxy-5H-pyrido[3,2-b]indol-5-yl)methyl)benzenesulfonamide] | < 1000 nM | < 1000 nM
3 | COc1ccc2c3cncnc3n(Cc3ccc(S(N)(=O)=O)cc3)c2c1 [Compound 48, 4-((7-methoxy-9H-pyrimido[4,5-b]indol-9-yl)methyl)benzenesulfonamide] | 1000 to 10000 nM | < 1000 nM
4 | COc1ccc2c3c(=O)[nH]ccc3n(Cc3ccc(S(N)(=O)=O)cc3)c2c1 [Compound 43, 4-((7-methoxy-1-oxo-1,2-dihydro-5H-pyrido[4,3-b]indol-5-yl)methyl)benzenesulfonamide] | 1000 to 10000 nM | < 1000 nM
5 | COc1ccc2c(c1)c1ccncc1n2Cc1ccc(S(C)(=N)=O)cc1 (stereo not drawn) [Compound 3, imino (4-((6-methoxy-9H-pyrido[3,4-b]indol-9-yl)methyl)phenyl)(methyl)-l6-sulfanone] | < 1000 nM | < 1000 nM
6 | COc1ccc2c(c1)c1ncccc1n2Cc1ccc(S(N)(=O)=O)cc1Cl [Compound 16, 3-chloro-4-((8-methoxy-5H-pyrido[3,2-b]indol-5-yl)methyl)benzenesulfonamide] | < 1000 nM | < 1000 nM
7 | COc1ccc2c3cnccc3n(Cc3ccc(S(N)(=O)=O)cc3)c2c1 [Compound 52, 4-((7-methoxy-5H-pyrido[4,3-b]indol-5-yl)methyl)benzenesulfonamide] | 1000 to 10000 nM | < 1000 nM
8 | COc1ccc2c3cnncc3n(Cc3ccc(S(N)(=O)=O)cc3)c2c1 [Compound 47, 4-((7-methoxy-5H-pyridazino[4,5-b]indol-5-yl)methyl)benzenesulfonamide] | 1000 to 10000 nM | < 1000 nM
9 | COc1cc2c3ncccc3n(Cc3ccc(S(=N)(=O)C4CC4)cc3)c2cc1F (single isomer, unassigned) [Compound 56a, cyclopropyl (4-((7-fluoro-8-methoxy-5H-pyrido[3,2-b]indol-5-yl)methyl)phenyl) (imino)-l6-sulfanone] | – | < 1000 nM
10 | COc1ccc2c(c1)c1ncccc1n2Cc1ccc(S(C)(=N)=O)cc1F (stereo not drawn) [Compound 17, (3-fluoro-4-((8-methoxy-5H-pyrido[3,2-b]indol-5-yl)methyl)phenyl)(imino)(methyl)-l6-sulfanone] | < 1000 nM | < 1000 nM
11 | COc1ccc2c(c1)c1ncccc1n2Cc1ccc(S(C)(=N)=O)cc1 (single isomer, unassigned) [Compound 10b, imino (4-((8-methoxy-5H-pyrido[3,2-b]indol-5-yl)methyl)phenyl)(methyl)-l6-sulfanone] | – | < 1000 nM
12 | COc1cc2c3ncccc3n(Cc3ccc(S(C)(=N)=O)cc3F)c2cc1F (stereo not drawn) [Compound 31, (3-fluoro-4-((7-fluoro-8-methoxy-5H-pyrido[3,2-b]indol-5-yl)methyl)phenyl)(imino)(methyl)-l6-sulfanone] | < 1000 nM | < 1000 nM
13 | COc1ccc2c3ncccc3n(Cc3ccc(S(N)(=O)=O)cc3)c2c1 [Compound 53, 4-((7-methoxy-5H-pyrido[3,2-b]indol-5-yl)methyl)benzenesulfonamide] | < 1000 nM | < 1000 nM
14 | COc1ccc2c(c1)c1ncccc1n2Cc1ccc(S(C)(=N)=O)c(F)c1 (stereo not drawn) [Compound 20, (2-fluoro-4-((8-methoxy-5H-pyrido[3,2-b]indol-5-yl)methyl)phenyl)(imino)(methyl)-l6-sulfanone] | < 1000 nM | < 1000 nM
15 | COc1ccc2c3c(n(Cc4ccc(S(N)(=O)=O)cc4)c2c1)CCNC3=O [Compound 42, 4-((7-methoxy-1-oxo-1,2,3,4-tetrahydro-5H-pyrido[4,3-b]indol-5-yl)methyl)benzene sulfonamide] | < 1000 nM | < 1000 nM
16 | COc1ccc2c(c1)c1cnncc1n2Cc1ccc(S(N)(=O)=O)cc1 [Compound 50, 4-((8-methoxy-5H-pyridazino[4,5-b]indol-5-yl)methyl)benzenesulfonamide] | – | 1000 to 10000 nM
17 | COc1ccc2c(c1)c1c(n2Cc2ccc(S(N)(=O)=O)cc2)CNC(C)C1 (stereo not drawn) [Compound 33, 4-((6-methoxy-3-methyl-1,2,3,4-tetrahydro-9H-pyrido[3,4-b]indol-9-yl)methyl)benzene sulfonamide] | – | > 10000 nM
18 | Cc1ccc2c(c1)c1c(n2Cc2ccc(S(N)(=O)=O)cc2)CCCN1 [Compound 40, 4-((8-methyl-1,2,3,4-tetrahydro-5H-pyrido[3,2-b]indol-5-yl)methyl)benzenesulfonamide] | – | 1000 to 10000 nM
19 | COc1ccc2c(c1F)c1ncccc1n2Cc1ccc(S(N)(=O)=O)cc1 [Compound 54, 4-((9-fluoro-8-methoxy-5H-pyrido[3,2-b]indol-5-yl)methyl)benzenesulfonamide] | < 1000 nM | –
20 | COc1ccc2c(c1)c1c(n2Cc2cccc(S(N)(=O)=O)c2)CCCN1 [Compound 39, 3-((8-methoxy-1,2,3,4-tetrahydro-5H-pyrido[3,2-b]indol-5-yl)methyl)benzenesulfonamide] | – | > 10000 nM
21 | COc1cc2c3ncccc3n(Cc3ccc(S(=N)(=O)C4CC4)cc3)c2cc1F (single isomer, unassigned) [Compound 56b, cyclopropyl (4-((7-fluoro-8-methoxy-5H-pyrido[3,2-b]indol-5-yl)methyl)phenyl) (imino)-l6-sulfanone] | < 1000 nM | –
22 | COc1cc2c3ncccc3n(Cc3ccc(S(C)(=N)=O)cc3)c2cc1F (single isomer, unassigned) [Compound 30b, (4-((7-fluoro-8-methoxy-5H-pyrido[3,2-b]indol-5-yl)methyl)phenyl)(imino)(methyl)-l6-sulfanone] | – | < 1000 nM
23 | COc1ccc2c(c1)c1ncccc1n2Cc1ccc(S(C)(=N)=O)cc1C(F)(F)F (stereo not drawn) [Compound 55, imino (4-((8-methoxy-5H-pyrido[3,2-b]indol-5-yl)methyl)-3-(trifluoromethyl)phenyl)(methyl)-l6-sulfanone] | – | > 10000 nM
